Experiment in all cases: DTP human tumour cell line panel, 48 h
For assay [1], the system named is UACC-62.
The test system of assay [2] is TK-10.
The subject of assay [3] is OVCAR-5.
The subject of assay [4] is SNB-75.
The test system of assay [5] is BT-549.
In assay [6] the test system is ACHN.
Assay [7] concerns NCI-H460.
The test system of assay [8] is LOX IMVI.
In assay [9] the test system is A498.
Assay [10] relates to A549.
In assay [11] the test system is RXF 393.
Assay [12] has as its system Malme-3M.
Assay [13] deals with HCT-15.
Assay [14] deals with MDA-MB-435.
The subject of assay [15] is KM12.
Assay [16] deals with UACC-257.
In assay [17] the test system is SR.
Assay [18] relates to NCI-H23.
Assay [19] relates to SK-OV-3.
Assay [20] concerns HOP-62.

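Briefly, cells in 96-well plates were exposed to five compound concentrations for 48 h, and endpoints were estimated by linear interpolation. GI50 = concentration required for 50% inhibition of growth.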 Activity calls are given as the source filed them. No stated cut-off is given here; in the data, active = GI50 up to about 1.1 µM and inactive = higher.

Usually GI50 stands for the concentration giving 50% growth inhibition. On to `N#C[BH2-][n+]1ccc(C(=O)NNCc2ccccc2)cc1`, for which the GI50 in [1], in assay [2], in [3], in assay [4], in [5] and in assay [6] was > 100 µM (inactive) throughout. Besides, the GI50 in assay [7], in assay [8], in assay [9], in [10], in assay [11] and in assay [12] was > 100 µM (inactive) in each case. For the same compound, the GI50 was greater than 100 µM in assay [13]; > 100 µM (inactive) in assay [14]; > 100 µM (inactive) in assay [15]; > 100 µM (inactive) in assay [16]; > 100 µM (inactive) in [17].

In the case of `COc1ccc2oc(C(=O)N3CC(CCl)c4ccc([N+](=O)[O-])cc43)cc2c1` (stereo not given), the GI50 was 41.9 µM (inactive) in assay [1]; 33.2 µM (inactive) in [2]; 18.2 µM (inactive) in assay [4]; 42.3 µM (inactive) in assay [5]; 40.6 µM (inactive) in [6]; 31.3 µM (inactive) in assay [7]. Moreover, the GI50 in assay [18] was 73.8 µM (inactive); in assay [8], 67 µM (inactive); in assay [9], 18.9 µM (inactive); in assay [11], 13.4 µM (inactive); in assay [19], 13.2 µM (inactive); in assay [14], 0.468 µM (active). The 50% growth inhibitory concentration (GI50) in assay [15] was 0.381 µM (active); in [16], > 100 µM (inactive); in assay [17] it was 0.402 µM (active); in [20], 12.4 µM (inactive).

As for `Cc1ccc(-c2cc(-c3ccccc3)nc(N)n2)c(O)c1`, the GI50 is > 78.2 µM (inactive) in [1]; > 60.1 µM (inactive) in assay [2]; > 100 µM (inactive) in assay [3]; > 100 µM (inactive) in assay [5]; > 100 µM (inactive) in assay [6]; > 27 µM (inactive) in assay [7]. Besides, the GI50 was > 100 µM (inactive) in assay [18]; > 90.6 µM (inactive) in [9]; > 90.4 µM (inactive) in [10]; > 100 µM (inactive) in [11]; > 100 µM (inactive) in [12]; greater than 22.9 µM in assay [13]. Besides, the GI50 in assay [19] is > 75.7 µM (inactive); in assay [14] it was 2.86 µM (inactive); in assay [15], 7.46 µM (inactive); in [16], > 100 µM (inactive); in assay [17], 0.227 µM (active); in assay [20] it was 27.6 µM (inactive).

`O=C(O)CC1OCC=C2C[N+]3([O-])CCC45c6ccccc6NC4C1C2CC53` (stereo not given): the GI50 in [1], in assay [2], in [3], in [5], in assay [6] and in assay [7] was > 100 µM (inactive) in each case. In addition, the GI50 in assay [18], in [8], in assay [9], in assay [10], in assay [11] and in assay [12] was > 100 µM (inactive) in each case. The GI50 in [13] was greater than 100 µM; in assay [19] it was > 100 µM (inactive); in [14], > 100 µM (inactive); in assay [15] it was > 100 µM (inactive); in assay [16], > 100 µM (inactive); in assay [17], > 100 µM (inactive). Further, the GI50 in assay [20] is > 100 µM (inactive).

As to `CC1(C)CC[C@]2(C(=O)O)[C@H](O)C[C@]3(C)C(=CC[C@@H]4[C@@]5(C)CC[C@H](OC6OC(C(=O)O)C(O)C(O)C6O)C(C)(C)[C@@H]5CC[C@]43C)[C@@H]2C1` (stereo not given in full), the GI50 in [1] is 23.6 µM (inactive); in [3], > 100 µM (inactive); in assay [4], 46.7 µM (inactive); in [5] it was 18.5 µM (inactive); in assay [6] it was 40.4 µM (inactive); in [7] it was > 100 µM (inactive). For the same compound, the GI50 in assay [18] is > 100 µM (inactive); in assay [8], 64.3 µM (inactive); in [9], 22.2 µM (inactive); in [10], > 100 µM (inactive); in [11] it was 26.1 µM (inactive); in assay [12] it was > 100 µM (inactive). Also, the GI50 in [13] is 58.2 µM; in assay [19], > 100 µM (inactive); in assay [14], > 100 µM (inactive); in assay [15], 56.2 µM (inactive); in assay [16] it was > 100 µM (inactive); in assay [17], 21.3 µM (inactive). In addition, the GI50 in assay [20] is > 100 µM (inactive).

Consider `CCOP(=O)(OCC)/C(C#N)=C/c1cnc(-c2ccccc2)[nH]1`, for which the GI50 in assay [1], in [3], in assay [4], in assay [5], in assay [6] and in assay [7] was > 100 µM (inactive) in each case. The GI50 in assay [18] was 79.6 µM (inactive); in [8], > 100 µM (inactive); in assay [9], > 100 µM (inactive); in [10], > 100 µM (inactive); in assay [11], > 100 µM (inactive); in assay [12] it was > 100 µM (inactive). Also, the GI50 in [13] was greater than 100 µM; in [19], > 100 µM (inactive); in [14] it was 24.7 µM (inactive); in assay [15], > 100 µM (inactive); in [16] it was > 100 µM (inactive); in assay [17] it was > 100 µM (inactive). Further, the GI50 in assay [20] is > 100 µM (inactive).

`Cc1ccc2c(c1)[nH]c(=S)n2/C=C1\C(=O)Oc2ccccc2C1=O`: the GI50 in assay [1] was 13.1 µM (inactive); in assay [2], > 100 µM (inactive); in assay [3] it was > 100 µM (inactive); in assay [4], 38.4 µM (inactive); in [5], 45.7 µM (inactive); in assay [6] it was 36 µM (inactive). Besides, the GI50 is 44.1 µM (inactive) in [7]; 70.8 µM (inactive) in assay [18]; 70 µM (inactive) in assay [8]; 49.1 µM (inactive) in assay [9]; 77.4 µM (inactive) in assay [10]; 30.5 µM (inactive) in assay [11]. Moreover, the GI50 in assay [12] was 34.6 µM (inactive); in [13], 44.9 µM; in assay [14] it was 61.8 µM (inactive); in assay [15], 84.5 µM (inactive); in [16], 82 µM (inactive); in [17], 71.6 µM (inactive). Moreover, the GI50 in assay [20] was 51.3 µM (inactive).

In the case of `C(=N\c1ccc(-c2nc3ccccc3[nH]2)cc1)/c1ccco1`, the GI50 in assay [1] is 89.7 µM (inactive); in assay [2] it was > 100 µM (inactive); in [3] it was > 100 µM (inactive); in assay [4], > 100 µM (inactive); in assay [5] it was > 100 µM (inactive); in assay [6] it was > 100 µM (inactive). Further, the GI50 in assay [18] was 82.6 µM (inactive); in [8] it was 67 µM (inactive); in assay [9], > 100 µM (inactive); in assay [10], > 100 µM (inactive); in [11] it was 73.8 µM (inactive); in [12], > 100 µM (inactive). In addition, the GI50 is 61 µM in assay [13]; 48.4 µM (inactive) in [14]; 48.6 µM (inactive) in assay [15]; > 100 µM (inactive) in [16]; 37.2 µM (inactive) in assay [17]; > 100 µM (inactive) in assay [20].

As to `CCN(CC)c1ccc2cc(C(=O)Nc3ccccn3)c(=N)oc2c1`, the GI50 in assay [1] was 30.3 µM (inactive); in assay [3] it was 80.2 µM (inactive); in assay [4], 28.5 µM (inactive); in [5], > 100 µM (inactive); in assay [6], 26.9 µM (inactive); in assay [7] it was > 100 µM (inactive). Moreover, the GI50 is 37.8 µM (inactive) in assay [18]; 71.1 µM (inactive) in assay [8]; > 100 µM (inactive) in [9]; > 100 µM (inactive) in [10]; 47.9 µM (inactive) in assay [11]; 60.3 µM (inactive) in assay [12]. For the same compound, the GI50 is greater than 100 µM in assay [13]; 52 µM (inactive) in assay [19]; > 100 µM (inactive) in [14]; > 100 µM (inactive) in assay [15]; > 100 µM (inactive) in assay [16]; > 100 µM (inactive) in assay [17]. Also, the GI50 in [20] is 22.9 µM (inactive).

Turning to `CC(C)(C)c1cc(-c2cc(C(C)(C)C)[nH]n2)[nH]n1`, the GI50 in [1], in assay [2], in assay [3], in assay [5], in assay [6] and in assay [7] was > 100 µM (inactive) throughout. The GI50 in assay [18] is > 100 µM (inactive); in assay [8] it was 93.3 µM (inactive); in [9], > 100 µM (inactive); in assay [10] it was > 100 µM (inactive); in assay [11], > 100 µM (inactive); in assay [12] it was > 100 µM (inactive). Also, the GI50 is greater than 100 µM in assay [13]; > 100 µM (inactive) in assay [19]; > 100 µM (inactive) in assay [14]; > 100 µM (inactive) in [16]; 39.1 µM (inactive) in [17]; > 100 µM (inactive) in assay [20].

Turning to `Cc1nc(C)c(N2CCN(C(=O)O)CC2)c(O)n1`, the GI50 in assay [1], in assay [2], in assay [5], in assay [6], in [7] and in [18] was > 100 µM (inactive) in each case. The GI50 in assay [8] is > 100 µM (inactive); in assay [9], > 100 µM (inactive); in assay [10], > 100 µM (inactive); in [11] it was > 100 µM (inactive); in assay [12] it was > 100 µM (inactive); in assay [13], greater than 100 µM. The GI50 in assay [19], in assay [14], in [15], in [16], in assay [17] and in [20] was > 100 µM (inactive) each time.
